Consider 46 compounds from patent US7358259B2, “HCV inhibitors and methods of using them” (Rigel Pharmaceuticals, Inc., priority 2003, dated 2008).

Bounds are passed on as bounds.

The experiment relates to HCV replicon in 5-2Luc replicon cells. In words: HCV Replicon Assay (luciferase). It is filed as cell-based. The note with it: Hepatitis C virus; Table 4; assay not given. As to the method: Actively dividing 5-2Luc replicon cells were seeded at the density of 5000-7500 cells/well in the volume of 90 μl/well into 96 well plate(s). The cells were then incubated at 37° C. and 5% CO2 for 24 hours. The 5-2 cells are replicon cells licensed from Ralf Bartenschlager (Germany) and have a self-replicating RNA molecule in the Huh7 cell; the RNA contains HCV non-structural proteins that make the self-replication possible.
Various concentrations of compounds (in the volume of 10 μl) were added into each well 24 hours after seeding the cells. The cells were incubated for another 24 hours before luciferase assay.
After incubating the 5-2 Luc replicon cells with the compounds for 24 hours, media were aspirated from each well and Bright-Glo ([…]) luciferase assay reagents were added to each well according to the manufacturer's manual. Briefly, the Bright-Glo reagent was diluted with equal volume of PBS and an aliquote (100 μl) was added to each well. After incubating the plate at room temperature for 5 minutes, luciferase counts were taken using a luminometer.
For orientation: In antiviral work, replicon cells carry a viral genome segment that copies itself.
Consider `O=C(NOC1CCCCO1)c1cc2ccc(F)cc2n2c(Cl)nnc12` (stereo not shown) [1-chloro-8-fluoro-N-(tetrahydro-2H-py-ran-2-yloxy)-[1,2,4]tri-azolo[4,3-a]quinoline-4-car-boxamide], for which the IC50 is > 10 µM.

`O=C(NO)c1cc2ccc(F)cc2n2c(Cl)nnc12` [1-chloro-8-fluoro-N-hydroxy-[1,2,4]tri-azolo[4,3-a]quinoline-4-car-boxamide]: the IC50 is < 10 µM.

Regarding `O=C(NO)c1cc2ccccc2nc1Cl` [2-chloro-N-hydroxyquinoline-3-car-boxamide], the IC50 was > 10 µM.

Consider `ClC(Cl)c1nnc(-c2cc3nnnn3c3ccccc23)o1` [5-(5-(dichloromethyl)-1,3,4-oxa-diazol-2-yl)tetrazolo[1,5-a]quino-line], for which the IC50 is > 10 µM.

`O=C(NOC1CCCCO1)c1cc2c(Cl)cccc2n2nnnc12` (stereo not shown) [6-chloro-N-(tetrahydro-2H-pyran-2-yl-oxy)tetrazolo[1,5-a]quinoline-4-car-boxamide]: the IC50 was > 10 µM.

As for `O=C(NO)c1cc2c(Cl)cccc2n2nnnc12` [6-chloro-N-hydroxytetrazolo[1,5-a]quino-line-4-carboxamide], the IC50 was < 10 µM.

As for `COc1cc2cc(C(=O)NOC3CCCCO3)c3nnnn3c2cc1OC` (stereo not shown) [7,8-dimethoxy-N-(tetrahydro-2H-py-ran-2-yloxy)tetrazolo[1,5-a]quino-line-4-carboxamide], the IC50 is < 10 µM.

Consider `O=C(NOC1CCCCO1)c1cc2cc(Cl)cc(Cl)c2n2cnnc12` (stereo not shown) [7,9-dichloro-N-(tetrahydro-2H-py-ran-2-yloxy)-[1,2,4]tri-azolo[4,3-a]quinoline-4-car-boxamide], for which the IC50 is > 10 µM.

Take `O=C(NOC1CCCCO1)c1cc2cc(Cl)cc(Cl)c2n2nnnc12` (stereo not shown) [7,9-dichloro-N-(tetrahydro-2H-py-ran-2-yloxy)tetrazolo[1,5-a]quino-line-4-carboxamide]: the IC50 is > 10 µM.

Turning to `O=C(NO)c1cc2cc(Cl)cc(Cl)c2n2nnnc12` [7,9-dichloro-N-hy-droxytetrazolo[1,5-a]quinoline-4-car-boxamide], the IC50 was < 10 µM.

In the case of `O=C(NO)c1cc2cc(Cl)cc(Cl)c2n2cnnc12` [7,9-dichloro-N-hydroxy-[1,2,4]tri-azolo[4,3-a]quinoline-4-car-boxamide], the IC50 was < 10 µM.

For the compound `O=C(O)c1cc2cc(Cl)cc(Cl)c2n2cnnc12` [7,9-dichloro-[1,2,4]triazolo[4,3-a]quino-line-4-carboxylic acid], the IC50 was > 10 µM.

Take `Cc1cc(C)c2c(c1)cc(C(=O)NOC1CCCCO1)c1nnnn12` (stereo not shown) [7,9-dimethyl-N-(tetrahydro-2H-py-ran-2-yloxy)tetrazolo[1,5-a]quino-line-4-carboxamide]: the half-maximal inhibitory concentration (IC50) was > 10 µM.

For `O=C(NOC1CCCCO1)c1cc2cc(Cl)ccc2n2cnnc12` (stereo not shown) [7-chloro-N-(tetrahydro-2H-pyran-2-yl-oxy)-[1,2,4]triazolo[4,3-a]quino-line-4-carboxamide], the IC50 was > 10 µM.

Turning to `O=C(NOC1CCCCO1)c1cc2cc(Cl)ccc2n2nnnc12` (stereo not shown) [7-chloro-N-(tetrahydro-2H-pyran-2-yl-oxy)tetrazolo[1,5-a]quinoline-4-car-boxamide], the IC50 is > 10 µM.

On to `Cc1nnc2c(C(=O)NO)cc3cc(Cl)ccc3n12` [7-chloro-N-hydroxy-1-methyl-[1,2,4]tri-azolo[4,3-a]quinoline-4-car-boxamide], for which the IC50 was < 10 µM.

With `O=C(NO)c1cc2cc(Cl)ccc2n2cnnc12` [7-chloro-N-hydroxy-[1,2,4]tri-azolo[4,3-a]quinoline-4-car-boxamide], the IC50 is < 10 µM.

For `O=C(NO)c1cc2cc(Cl)ccc2n2nnnc12` [7-chloro-N-hydroxytetrazolo[1,5-a]quino-line-4-carboxamide], the IC50 was < 10 µM.

Take `O=C(NO)c1cc2cc(F)ccc2n2nnnc12` [7-fluoro-N-hydroxytetrazolo[1,5-a]quino-line-4-carboxamide]: the IC50 was < 10 µM.

Take `COc1cc2cc(C(=O)NOC3CCCCO3)c3nnnn3c2cc1Cl` (stereo not shown) [8-chloro-7-methoxy-N-(tetra-hydro-2H-pyran-2-yl-oxy)tetrazolo[1,5-a]quinoline-4-car-boxamide]: the IC50 is > 10 µM.

In the case of `COc1cc2cc(C(=O)NO)c3nnnn3c2cc1Cl` [8-chloro-N-hydroxy-7-meth-oxytetrazolo[1,5-a]quino-line-4-carboxamide], the IC50 was < 10 µM.

On to `CN(O)C(=O)c1cc2ccc(Cl)cc2n2nnnc12` [8-chloro-N-hydroxy-N-meth-yltetrazolo[1,5-a]quinoline-4-car-boxamide], for which the IC50 is > 10 µM.

With `O=C(NO)c1cc2ccc(Cl)cc2n2nnnc12` [8-chloro-N-hydroxytetrazolo[1,5-a]quino-line-4-carboxamide], the IC50 was < 10 µM.

In the case of `O=C(O)c1cc2ccc(F)cc2n2cnnc12` [8-fluoro-[1,2,4]triazolo[4,3-a]quino-line-4-carboxylic acid], the IC50 was > 10 µM.

As to `COc1ccc2cc(C(=O)NOC3CCCCO3)c3nnnn3c2c1` (stereo not shown) [8-methoxy-N-(tetrahydro-2H-py-ran-2-yloxy)tetrazolo[1,5-a]quino-line-4-carboxamide], the IC50 is > 10 µM.

Consider `O=C(NOC1CCCCO1)c1cc2cccc(Cl)c2n2nnnc12` (stereo not shown) [9-chloro-N-(tetrahydro-2H-pyran-2-yl-oxy)tetrazolo[1,5-a]quinoline-4-car-boxamide], for which the IC50 was > 10 µM.

On to `O=C(NO)c1cc2cccc(Cl)c2n2nnnc12` [9-chloro-N-hydroxytetrazolo[1,5-a]quino-line-4-carboxamide], for which the IC50 was < 10 µM.

`Cc1cccc2cc(C(=O)NOC3CCCCO3)c3nnnn3c12` (stereo not shown) [9-methyl-N-(tetrahydro-2H-pyran-2-yl-oxy)tetrazolo[1,5-a]quinoline-4-car-boxamide]: the half-maximal inhibitory concentration (IC50) is > 10 µM.

Consider `O=C(NOC1CCCCO1)c1cc2ccccc2n2nnnc12` (stereo not shown) [N-(tetrahydro-2H-pyran-2-yl-oxy)tetrazolo[1,5-a]quinoline-4-car-boxamide], for which the IC50 was > 10 µM.

With `O=C(NOC1CCCCO1)c1cc2nnnn2c2ccccc12` (stereo not shown) [N-(tetrahydro-2H-pyran-2-yl-oxy)tetrazolo[1,5-a]quinoline-5-car-boxamide], the IC50 is > 10 µM.

As for `O=C(NOC1CCCCO1)c1cc2ccc(OC(F)(F)F)cc2n2nnnc12` (stereo not shown) [N-(tetrahydro-2H-pyran-2-yloxy)-8-(tri-fluoromethoxy)tetrazolo[1,5-a]quino-line-4-carboxamide], the IC50 was > 10 µM.

As for `COc1cc2cc(C(=O)NO)c3nnnn3c2cc1OC` [N-hydroxy-7,8-di-methoxytetrazolo[1,5-a]quino-line-4-carboxamide], the IC50 is < 10 µM.

With `Cc1cc(C)c2c(c1)cc(C(=O)NO)c1nnnn12` [N-hydroxy-7,9-di-methyltetrazolo[1,5-a]quino-line-4-carboxamide], the IC50 was < 10 µM.

Turning to `O=C(NO)c1cc2cc3c(cc2n2nnnc12)OCCO3` [N-hydroxy-8,9-di-hydro[1,4]dioxino[2,3-g]tetra-zolo[1,5-a]quinoline-4-car-boxamide], the IC50 was < 10 µM.

As to `O=C(NO)c1cc2ccc(OC(F)(F)F)cc2n2nnnc12` [N-hydroxy-8-(tri-fluoromethoxy)tetrazolo[1,5-a]quino-line-4-carboxamide], the IC50 was < 10 µM.

For `O=C(NO)c1cc2ccc(C(F)(F)F)cc2n2nnnc12` [N-hydroxy-8-(tri-fluoromethyl)tetrazolo[1,5-a]quino-line-4-carboxamide], the IC50 is < 10 µM.

Turning to `COc1ccc2cc(C(=O)NO)c3nnnn3c2c1` [N-hydroxy-8-meth-oxytetrazolo[1,5-a]quino-line-4-carboxamide], the IC50 was > 10 µM.

Consider `Cc1cccc2cc(C(=O)NO)c3nnnn3c12` [N-hydroxy-9-methyltetrazolo[1,5-a]quino-line-4-carboxamide], for which the IC50 is < 10 µM.

In the case of `O=C(NO)c1cnc2ccccc2c1` [N-hydroxyquinoline-3-car-boxamide], the IC50 was > 10 µM.

As to `O=C(NO)c1cc2ccccc2n2nnnc12` [N-hydroxytetrazolo[1,5-a]quino-line-4-carboxamide], the IC50 was < 10 µM.

Turning to `O=C(NO)c1cc2nnnn2c2ccccc12` [N-hydroxytetrazolo[1,5-a]quino-line-5-carboxamide], the IC50 was > 10 µM.

As to `CCOC(=O)c1cc2cc(Cl)cc(Cl)c2n2cnnc12` [ethyl 7,9-dichloro-[1,2,4]tri-azolo[4,3-a]quinoline-4-car-boxylate], the IC50 was > 10 µM.

As for `CCOC(=O)c1cc2cc(Cl)ccc2n2c(C)nnc12` [ethyl 7-chloro-1-methyl-[1,2,4]tri-azolo[4,3-a]quinoline-4-car-boxylate], the IC50 is > 10 µM.

As to `CCOC(=O)c1cc2cc(Cl)ccc2n2cnnc12` [ethyl 7-chloro-[1,2,4]tri-azolo[4,3-a]quinoline-4-car-boxylate], the IC50 was > 10 µM.

Regarding `COC(=O)c1cc2ccc(F)cc2n2cnnc12` [methyl 8-fluoro-[1,2,4]tri-azolo[4,3-a]quinoline-4-car-boxylate], the IC50 is > 10 µM.

On to `COC(=O)c1cc2nnnn2c2ccccc12` [methyl tetrazolo[1,5-a]quinoline-5-car-boxylate], for which the IC50 was > 10 µM.

Usually IC50 stands for the point on the concentration scale where inhibition reaches its midpoint.
